Common to all, as to test: DTP human tumour cell line panel, 48 h
The subject of assay [1] is IGROV1 ovarian.
Assay [2] relates to NCI-H522 lung.
Assay [3] has as its system MALME-3M melanoma.

Several values for one entry are separate records, joined by “and”; a condition that tells them apart may be missing. Identical values can stand only once.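 Growth conditions: 96-well plates. Treatment: test compound, 48 hours, 5 concentrations. Analysis: linear interpolation between bracketing concentrations; unreached endpoints set to highest concentration. GI50: concentration for 50% inhibition of growth. TGI marks complete inhibition of growth.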 Where a SMILES comes first, the peptide text is derived from it. The star is where a group is joined. Cbz = O=C(OCc1ccccc1)*; Boc = CC(C)(C)OC(=O)*; OBn = c1ccc(CO*)cc1

The TGI is the concentration giving total growth inhibition. Read a low TGI as more potent growth arrest. Turning to `Cc1oc2nc(N(C)C)n3c(C)nnc3c2c1C`, the TGI in assay [1] and in assay [2] was above 100 µM throughout.

Turning to `CCOC(=O)c1cc(NC(=O)c2ccccc2)c(=O)n2c(cc3c(Cl)cccc32)c1O`, the TGI in assay [1], in assay [2] and in assay [3] was above 100 µM throughout.

Regarding `C=CCSC1=N/C(=C\c2ccco2)C(=O)N1CC=C`, the concentration for total growth inhibition (TGI) in assay [1], in assay [2] and in assay [3] was above 100 µM each time.

In the case of `O=C1Nc2ccccc2/C1=C\c1c(Cl)[nH]c2ccccc12`, the total growth inhibition concentration (TGI) amounted to 1.35 µM in assay [1], 3.54 µM in assay [2] and 6.39 µM in assay [3].

Regarding `ClCc1nc2cc(Cl)ccc2o1`, the results for the total growth inhibition concentration (TGI) in assay [1], in assay [2] and in assay [3] were 3.29 µM, 3.37 µM and 27.3 µM, respectively.

As to `COc1ccc(/C=N/Nc2nc3ccccc3c(=O)n2-c2ccccc2)cc1`, the TGI in assay [1], in assay [2] and in assay [3] was above 100 µM throughout.

Consider `Cc1c(O)c(OC2OC(CO)C(O)C(O)C2O)cc2c1CC[C@@H]1C2(C)C(=O)C[C@]2(C)[C@@H]([C@@](C)(O)C(O)CCC(C)(C)O)[C@H](O)C[C@@]12C` (some centres undefined), for which the total growth inhibition concentration (TGI) in assay [1], in assay [2] and in assay [3] was above 100 µM in each case.

Turning to `CCCN=C1S/C(=C/c2ccc(OC)c(OC)c2)C(=O)N1c1ccccc1`, the TGI in assay [1], in assay [2] and in assay [3] was above 100 µM in each case.

On to `Cc1ccc2c(c1)C(=O)c1ccc(C)nc1C2=O`, for which the figures for the concentration for total growth inhibition (TGI) in assay [1], in assay [2] and in assay [3] were 83.2 µM, 82.1 µM and 52.5 µM, respectively.

For the molecule `N#CCCN(CCC#N)c1ccc(/C=C2\N=C(c3ccccc3)N(NC(=O)c3ccncc3)C2=O)cc1`, the TGI in assay [1] is above 100 µM.

With `O=Cc1cc(O)ccc1Br`, the TGI in assay [1] was above 100 µM; in assay [2], above 94.3 µM; in assay [3], above 31.6 µM.

As to `CSc1nc2ccccc2c(=O)n1-c1cccc(C)c1`, the TGI in assay [1], in assay [2] and in assay [3] was above 100 µM each time.

With `O=C(CN1c2ccccc2Sc2ccccc21)n1cnc2ccccc21`, the concentration for total growth inhibition (TGI) in assay [1] and in assay [3] was above 100 µM throughout.

Consider `CC(=O)NC1C(OCc2ccccc2)OC(CO)C(O)C1OCC(=O)NC(C)C(=O)NC(CCC(=O)Nc1ccc2c(c1)CN1C(=O)c3ccccc3C1=N2)C(N)=O` (centres undefined), for which the TGI in assay [1] and in assay [3] was above 100 µM each time.

Take `O=C(CC(C(=O)c1ccsc1)c1cccs1)c1ccsc1` (centres undefined): the total growth inhibition concentration (TGI) in assay [1] and in assay [3] was above 100 µM in each case.

On to `O=C(O)C1CCCCN1CCc1c[nH]c2ccccc12` (centres undefined), for which the TGI in assay [1], in assay [2] and in assay [3] was above 100 µM in each case.

`CCC1c2[nH]c3ccccc3c2C[C@H]2C(=O)NC(Cc3ccccc3)C(=O)N12` (some centres undefined): the results for the TGI in assay [1], in assay [2] and in assay [3] were 74.7 µM, 46.6 µM and 43.1 µM, respectively.

As for `COC(=O)C(CCCCNC(=O)OCc1ccccc1)NC(=O)C(CCC(=O)OCc1ccccc1)NC(=O)OC(C)(C)C` (centres undefined) (Boc-Glu(OBn)-Lys(Cbz)-OMe; configuration not given here), the TGI in assay [1], in assay [2] and in assay [3] was above 100 µM throughout.

With `N#Cc1c(-c2ccccc2)cc(Nc2ccc(F)cc2)n2c1nc1ccccc12`, the concentration for total growth inhibition (TGI) in assay [1] is above 100 µM; in assay [2], 5.83 µM; in assay [3], above 28.4 µM.

In the case of `[N-]=[N+]=NC1=C(N=[N+]=[N-])c2cccc3cccc(c23)C1=O`, the concentration for total growth inhibition (TGI) in assay [1], in assay [2] and in assay [3] was above 100 µM in each case.

As for `CC1C2CC(CC2=O)C1(C)C` (centres undefined), the total growth inhibition concentration (TGI) in assay [1], in assay [2] and in assay [3] was above 100 µM in each case.

`CC(=O)Nc1ccccc1S(=O)(=O)c1c(-c2c(C)c(Cl)c(C)c(Cl)c2C)noc1C`: the TGI in assay [1], in assay [2] and in assay [3] was above 100 µM throughout.

One may read the GI50 as the concentration that inhibits growth by half. `COc1cc(-c2c(C(C)=O)c(-c3ccccc3)n(C3OC(COC(C)=O)C(OC(C)=O)C(OC(C)=O)C3OC(C)=O)c(=S)c2C#N)ccc1O` (centres undefined): the GI50 is 31.8 µM and > 100 µM in assay [1]; 18.6 µM and 40.2 µM in assay [2]; 37 µM and > 100 µM in assay [3]. In addition, the TGI in assay [1] is above 100 µM; in assay [2], 90.4 µM and > 100 µM; in assay [3] it was above 100 µM.

In the case of `CC(=O)/C(=C\n1c(=S)[nH]c2ccc([N+](=O)[O-])cc21)C(=O)Nc1ccccc1C`, the TGI in assay [1], in assay [2] and in assay [3] was above 100 µM in each case.

`Cc1cc2c(cc1-c1cc3c(cc1C)C(C(C)C)=C(O)C(=O)/C3=C\Nc1cccc3c(N)cccc13)/C(=C/Nc1cccc3c(N)cccc13)C(=O)C(O)=C2C(C)C`: the concentration for total growth inhibition (TGI) in assay [1], in assay [2] and in assay [3] was above 100 µM each time.

Turning to `COC1(CCO)CC=CCC1(CCO)OC` (centres undefined), the total growth inhibition concentration (TGI) in assay [1], in assay [2] and in assay [3] was above 100 µM in each case.

With `COc1ccc2c(c1)OCC1Cc3cccc(OC)c3OC21` (centres undefined), the TGI in assay [1], in assay [2] and in assay [3] was above 100 µM each time.

Take `O=C(O)c1ccccc1/C=C1\Cc2ccc3c(c2C1=O)CCCC3`: the total growth inhibition concentration (TGI) in assay [1] is above 100 µM; in assay [2], 65.9 µM; in assay [3] it was above 100 µM.

Regarding `COC(=O)/C=C(\S/C(=C(/c1ccccc1)n1cc(C(=O)OC)c(C(=O)OC)n1)c1ccccc1)C(=O)OC`, the total growth inhibition concentration (TGI) in assay [1] and in assay [3] was 31.9 µM throughout.

`c1ccc(NC2(c3nnnn3C3CCCCC3)CCNCC2)cc1`: the concentration for total growth inhibition (TGI) is above 100 µM in assay [1] and 32.4 µM in assay [3].

On to `c1ncc(C23C4C5C6C4C2C6C53)[nH]1` (centres undefined), for which the total growth inhibition concentration (TGI) in assay [1] and in assay [3] was above 100 µM each time.

As to `CN(Cc1cnc2nc(N)nc(N)c2n1)c1ccc(C(=O)NC2CCCCC2)cc1`, the concentration for total growth inhibition (TGI) in assay [1] is 45.6 µM; in assay [3], above 100 µM.

These data come from PubChem BioAssay (NCI).
